# Patent publication US10087217B2 (priority 2013, dated 2018)
# Test system: U87 cells
# Experiment: Competitive inhibition of integrin targeted transduction mediated by AAV2^N587+1/azido+RGD
# Format: cell-based
substance,measurement,value
dibenzocyclooctyne [DIBO],competitive inhibition of DIBO-RGD coupling effect,competitively inhibit
